Reference: patent US10047051B2, “Substituted pyridines and method of use” (AbbVie S.á{acute over (.)}r.l., priority 2015, dated 2018)

How the values were obtained:
Assay type in all cases: cell-based
CFTR ΔF508 mutant = target: T1, CFTR ΔF508 mutant (Homo sapiens, UniProt P13569, DEL508-508); test: YFP-halide influx assay for the CFTR-ΔF508 mutation (CFBE41o- cells); details: forskolin 10.67 μM; for EC50: from (1−F/F0) vs concentration plot
T1 construct: expressed in transfected cells; host or cells: CFBE41o- cells, adenoviral transduction
Outline: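 CFBE41o- cells transduced with adenovirus expressing CFTR ΔF508 and halide-sensitive YFP H148Q/I152L/F47L, then held 24 h at 27° C or with a CFTR modulator 24 h at 37° C. Iodide-induced quench recorded 2 min; EC50 from (1−F/F0) at 36 s versus concentration.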

CFTR G551D mutant = target: T2, CFTR G551D mutant (Homo sapiens, UniProt P13569, G551D); test: YFP-halide influx assay for the CFTR-G551D mutation (HEK293 cells); details: forskolin 10.67 μM
T2 construct: expressed in transfected cells; host or cells: HEK293 cells, reverse transfection with plasmids
Outline: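 HEK293 cells reverse-transfected with CFTR G551D and halide-sensitive YFP (H148Q/I152L/F47L), expressed 24 h at 37 °C. YFP fluorescence quenching recorded for 7 s after I⁻ injection. Response = 1−F/F0; EC50 derived from 1−F/F0 vs compound concentration.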

CFTR-G1349D = target: T3, CFTR-G1349D (Homo sapiens, UniProt P13569, G1349D); test: YFP-halide influx assay for the CFTR-G1349D
T3 construct: expressed in transfected cells
Text: (§1) The YFP halide influx assay measured the functionality of the cystic fibrosis Transmembrane Conductance regulator (CFTR) channels. The assay was used to evaluate the capacity of compounds to increase the channel opening of existing mutant CFTR channels in the membrane. It makes use of the observation that the yellow fluorescent protein (YFP) variant YFP H148Q, I152L, F47L has its fluorescence substantially quenched by halide ions like Cl^− and I^− (Galietta, L. J. V., Haggie, P. M., Verkman, A. S., 2001. Green fluorescent protein-based halide indicators with improved chloride and iodide affinities. FEBS Lett. 499, 220-224. doi:10.1016/S0014-5793(01)02561-3).
(§2) For this purpose, HEK293-cells were seeded in 96 well plates. During seeding, the cells were reverse-transfected with plasmid vectors that direct the expression of the CFTR G551D mutant and of the YFP reporter. Cells were incubated at 37° C., 5% CO2 for 24 hours so as to allow for sufficient expression of the CFTR protein.
(§3) The I^−-induced quenching of fluorescence was recorded immediately after injection of I^− for 7 seconds. The capacity of a compound to increase the channel opening was directly correlated with the decrease in fluorescence, and was expressed as (1−(fluorescence after 7 seconds (F)/fluorescence before injection (F0))) and an EC50 was derived from a (1−F/F0) vs compound concentration plot.
(§4) Similar YHA assays were developed for other channel gating defective or channel conductance defective CFTR mutants to determine effect of compound on channel activity. Examples of mutants are G178R, G1349D, S549N, R117H, R334W. This assay is also used for additional class I CFTR mutants, including G542X, W1282X; class II mutants including N1303K, and for class III mutants including S1251N; or wild-type CFTR.

CFTR-R117H = target: T4, CFTR-R117H (Homo sapiens, UniProt P13569, R117H); test: YFP-halide influx assay for the CFTR-R117H
T4 construct: expressed in transfected cells
Text: as §1, §2, §3, §4

T4 sequence (P13569 whole entry R117H): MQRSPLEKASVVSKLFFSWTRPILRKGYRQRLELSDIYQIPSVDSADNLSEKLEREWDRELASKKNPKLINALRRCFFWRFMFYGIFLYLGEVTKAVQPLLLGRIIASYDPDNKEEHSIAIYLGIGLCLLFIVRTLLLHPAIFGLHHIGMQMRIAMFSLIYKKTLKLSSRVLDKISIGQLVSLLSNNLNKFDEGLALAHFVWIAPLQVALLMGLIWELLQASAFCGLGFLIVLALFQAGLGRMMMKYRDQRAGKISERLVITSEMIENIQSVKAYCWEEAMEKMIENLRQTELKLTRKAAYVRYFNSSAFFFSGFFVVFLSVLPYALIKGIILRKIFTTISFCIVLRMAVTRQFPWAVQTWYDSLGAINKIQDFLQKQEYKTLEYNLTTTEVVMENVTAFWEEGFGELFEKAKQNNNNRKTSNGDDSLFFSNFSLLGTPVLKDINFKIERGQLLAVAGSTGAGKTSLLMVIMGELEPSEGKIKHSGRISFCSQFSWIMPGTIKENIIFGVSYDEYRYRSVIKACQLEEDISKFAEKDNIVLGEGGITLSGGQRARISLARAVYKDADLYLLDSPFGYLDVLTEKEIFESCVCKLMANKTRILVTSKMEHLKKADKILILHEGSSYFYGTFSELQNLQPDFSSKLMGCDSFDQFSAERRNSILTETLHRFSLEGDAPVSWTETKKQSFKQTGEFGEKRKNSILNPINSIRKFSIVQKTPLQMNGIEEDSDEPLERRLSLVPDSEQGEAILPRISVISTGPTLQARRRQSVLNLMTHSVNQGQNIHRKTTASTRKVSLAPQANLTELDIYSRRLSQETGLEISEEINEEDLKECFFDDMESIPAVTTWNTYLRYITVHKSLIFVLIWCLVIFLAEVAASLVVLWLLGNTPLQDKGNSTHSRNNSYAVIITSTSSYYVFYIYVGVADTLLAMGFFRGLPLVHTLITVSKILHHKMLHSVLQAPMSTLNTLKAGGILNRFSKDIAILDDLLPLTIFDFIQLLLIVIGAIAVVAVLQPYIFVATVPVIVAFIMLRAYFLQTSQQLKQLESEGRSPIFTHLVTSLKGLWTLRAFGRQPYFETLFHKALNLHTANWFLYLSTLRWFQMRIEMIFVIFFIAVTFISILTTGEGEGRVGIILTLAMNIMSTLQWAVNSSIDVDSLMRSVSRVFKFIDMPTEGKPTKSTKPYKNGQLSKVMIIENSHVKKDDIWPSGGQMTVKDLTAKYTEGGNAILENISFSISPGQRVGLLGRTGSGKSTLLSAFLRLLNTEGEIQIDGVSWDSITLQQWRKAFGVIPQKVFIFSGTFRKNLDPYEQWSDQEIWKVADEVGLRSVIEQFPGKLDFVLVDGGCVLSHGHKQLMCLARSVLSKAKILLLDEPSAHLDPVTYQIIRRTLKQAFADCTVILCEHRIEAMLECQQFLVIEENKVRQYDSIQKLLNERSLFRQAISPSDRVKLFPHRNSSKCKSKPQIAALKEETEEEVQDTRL
T1 sequence (P13569 with tags, fused parts or gaps DEL508-508): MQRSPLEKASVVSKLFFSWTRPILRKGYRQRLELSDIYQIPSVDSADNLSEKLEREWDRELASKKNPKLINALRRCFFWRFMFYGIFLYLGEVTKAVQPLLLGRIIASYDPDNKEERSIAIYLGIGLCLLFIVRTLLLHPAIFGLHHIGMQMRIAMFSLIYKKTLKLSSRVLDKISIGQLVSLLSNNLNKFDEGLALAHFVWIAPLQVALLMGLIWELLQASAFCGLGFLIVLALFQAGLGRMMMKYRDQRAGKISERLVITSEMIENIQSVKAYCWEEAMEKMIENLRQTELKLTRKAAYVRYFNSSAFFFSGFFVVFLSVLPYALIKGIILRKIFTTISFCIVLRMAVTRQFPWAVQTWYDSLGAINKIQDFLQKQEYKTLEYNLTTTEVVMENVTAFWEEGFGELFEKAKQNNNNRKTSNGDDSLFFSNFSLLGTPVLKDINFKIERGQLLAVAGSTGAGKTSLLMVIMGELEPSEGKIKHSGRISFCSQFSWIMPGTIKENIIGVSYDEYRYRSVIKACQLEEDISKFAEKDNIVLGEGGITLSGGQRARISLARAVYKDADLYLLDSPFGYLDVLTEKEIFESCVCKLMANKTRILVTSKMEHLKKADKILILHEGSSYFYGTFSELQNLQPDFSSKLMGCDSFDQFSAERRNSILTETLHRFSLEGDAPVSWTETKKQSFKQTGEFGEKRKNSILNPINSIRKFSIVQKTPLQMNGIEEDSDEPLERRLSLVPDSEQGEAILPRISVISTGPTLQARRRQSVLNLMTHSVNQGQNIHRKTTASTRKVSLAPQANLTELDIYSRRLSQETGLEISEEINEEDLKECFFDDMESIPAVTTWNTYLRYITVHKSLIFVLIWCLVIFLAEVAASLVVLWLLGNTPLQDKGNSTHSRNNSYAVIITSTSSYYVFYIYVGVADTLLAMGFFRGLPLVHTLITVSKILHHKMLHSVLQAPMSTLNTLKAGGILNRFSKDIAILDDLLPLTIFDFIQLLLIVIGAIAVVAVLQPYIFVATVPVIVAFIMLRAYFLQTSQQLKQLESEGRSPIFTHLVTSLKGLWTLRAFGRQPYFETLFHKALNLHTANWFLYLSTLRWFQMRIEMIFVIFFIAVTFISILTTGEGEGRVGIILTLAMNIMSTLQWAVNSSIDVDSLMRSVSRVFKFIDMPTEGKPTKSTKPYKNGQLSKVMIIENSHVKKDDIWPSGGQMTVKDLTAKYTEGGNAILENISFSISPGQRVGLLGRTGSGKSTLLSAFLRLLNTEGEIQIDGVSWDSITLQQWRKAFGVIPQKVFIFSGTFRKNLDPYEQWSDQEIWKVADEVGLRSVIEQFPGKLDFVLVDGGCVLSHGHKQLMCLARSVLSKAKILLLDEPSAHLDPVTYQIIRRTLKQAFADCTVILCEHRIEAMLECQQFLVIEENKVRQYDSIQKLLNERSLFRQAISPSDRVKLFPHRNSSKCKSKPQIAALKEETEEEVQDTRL
T2 sequence (P13569 whole entry G551D): as the sequence (P13569 whole entry R117H) above, with H117R, G551D counted along it
T3 sequence (P13569 whole entry G1349D): as the sequence (P13569 whole entry R117H) above, with H117R, G1349D counted along it

% Activation (CFTR ΔF508 mutant) [%]	EC50 (CFTR ΔF508 mutant) [nM]	% Activation (CFTR G551D mutant) [%]	EC50 (CFTR G551D mutant) [nM]	% Activation (CFTR-G1349D) [%]	EC50 (CFTR-G1349D) [nM]	% Activation (CFTR-R117H) [%]	EC50 (CFTR-R117H) [nM]	SMILES
93.1	7.1	51.8	385	59.6	457	72.8	356	CC(C)NC(=O)CNC(=O)c1ncc(S(=O)(=O)c2ccc(OC(F)(F)F)cc2)cc1N [Compound 57, 3-amino-N-[2-oxo-2-(propan-2-ylamino)ethyl]-5-{[4-(trifluoromethoxy)phenyl]sulfonyl}pyridine-2-carboxamide]
102.0	3.1	60.8	262	82.8	256	89.3	152	Nc1cc(S(=O)(=O)c2ccc(C(F)(F)F)cc2)cnc1C(=O)NC[C@@H](O)C(F)(F)F [Compound 63, 3-amino-N-[(2R)-3,3,3-trifluoro-2-hydroxypropyl]-5-{[4-(trifluoromethyl)phenyl]sulfonyl}pyridine-2-carboxamide]
97.2	11.5	56.1	810	76.6	738	89.6	326	CC1(O)CN(C(=O)c2ncc(S(=O)(=O)c3ccc(C(F)(F)F)cc3)cc2N)C1 [Compound 91, (3-amino-5-{[4-(trifluoromethyl)phenyl]sulfonyl}pyridin-2-yl) (3-hydroxy-3-methylazetidin-1-yl)methanone]
110.0	26.2	52.6	368	67.7	448	87.8	351	Nc1cc(S(=O)(=O)c2ccc(C(F)(F)F)cc2)cnc1C(=O)N1CC(F)(F)C1 [Compound 103, (3-amino-5-{[4-(trifluoromethyl)phenyl]sulfonyl}pyridin-2-yl)(3,3-difluoroazetidin-1-yl)methanone]
93.2	208	49.5	419	99.5	770	90.7	621	CCOCC1(CNC(=O)c2ncc(S(=O)(=O)c3ccc(OC(F)(F)F)cc3)cc2N)CCC1 [Compound 118, 3-amino-N-{[1-(ethoxymethyl)cyclobutyl]methyl}-5-{[4-(trifluoromethoxy)phenyl]sulfonyl}pyridine-2-carboxamide]
101.0	34.1	64.6	554	84.8	320	89.9	307	Nc1cc(S(=O)(=O)c2ccc(OC(F)(F)F)cc2)cnc1C(=O)N1CC(OCC(F)F)C1 [Compound 119, (3-amino-5-{[4-(trifluoromethoxy)phenyl]sulfonyl}pyridin-2-yl)[3-(2,2-difluoroethoxy)azetidin-1-yl]methanone]
93.9	102	78.3	674	55.4	703	77.6	580	CCC1(F)CN(C(=O)c2ncc(S(=O)(=O)c3ccc(OC(F)(F)F)cc3)cc2N)C1 [Compound 130, (3-amino-5-{[4-(trifluoromethoxy)phenyl]sulfonyl}pyridin-2-yl)(3-ethyl-3-fluoroazetidin-1-yl)methanone]
98.1	66.3	81.9	881	97.6	637	107.0	499	COCC1(C)CN(C(=O)c2ncc(S(=O)(=O)c3ccc(OC(F)(F)F)cc3)cc2N)C1 [Compound 154, (3-amino-5-{[4-(trifluoromethoxy)phenyl]sulfonyl}pyridin-2-yl)[3-(methoxymethyl)-3-methylazetidin-1-yl]methanone]
79.7	88.1	26.8	–	–	–	–	–	COCC(=O)NNC(=O)c1ncc(S(=O)(=O)c2ccc(OC(F)(F)F)cc2)cc1N [Compound 286, 3-amino-N′-(methoxyacetyl)-5-{[4-(trifluoromethoxy)phenyl]sulfonyl}pyridine-2-carbohydrazide]
83.4	256	24.3	–	–	–	–	–	Nc1cc(S(=O)(=O)c2ccc(OC(F)(F)F)cc2)cnc1C(=O)NNC(=O)CO [Compound 287, 3-amino-N′-(hydroxyacetyl)-5-{[4-(trifluoromethoxy)phenyl]sulfonyl}pyridine-2-carbohydrazide]
109.0	8.7	78.3	> 3330	–	–	–	–	COCCOc1nc(C(=O)NC[C@H](C)O)c(N)cc1S(=O)(=O)c1ccc(OC(F)(F)F)cc1 [Compound 288, 3-amino-N-[(2S)-2-hydroxypropyl]-6-(2-methoxyethoxy)-5-{[4-(trifluoromethoxy)phenyl]sulfonyl}pyridine-2-carboxamide]
97.1	245	31.0	–	–	–	–	–	C[C@H](O)CNC(=O)c1nc(OCCN(C)C)c(S(=O)(=O)c2ccc(OC(F)(F)F)cc2)cc1N [Compound 289, 3-amino-6-[2-(dimethylamino)ethoxy]-N-[(2S)-2-hydroxypropyl]-5-{[4-(trifluoromethoxy)phenyl]sulfonyl}pyridine-2-carboxamide]
88.2	3	73.2	473	–	–	–	–	C[C@H](O)CNC(=O)c1nc(C2CC2)c(S(=O)(=O)c2ccc(OC(F)(F)F)cc2)cc1N [Compound 290, 3-amino-6-cyclopropyl-N-[(2S)-2-hydroxypropyl]-5-{[4-(trifluoromethoxy)phenyl]sulfonyl}pyridine-2-carboxamide]
72.4	263	28.5	> 10000	–	–	–	–	Nc1cc(S(=O)(=O)c2ccc(C(F)(F)F)cc2)cnc1C(=O)NC1(CO)CC1 [Compound 292, 3-amino-N-[1-(hydroxymethyl)cyclopropyl]-5-{[4-(trifluoromethyl)phenyl]sulfonyl}pyridine-2-carboxamide]
87.8	135	40.8	> 3330	–	–	–	–	CO[C@H]1CCC[C@@H]1NC(=O)c1ncc(S(=O)(=O)c2ccc(C(F)(F)F)cc2)cc1N [Compound 293, 3-amino-N-[(1S,2S)-2-methoxycyclopentyl]-5-{[4-(trifluoromethyl)phenyl]sulfonyl}pyridine-2-carboxamide]
97.5	9.6	104.0	967	–	–	–	–	CC1(F)CN(C(=O)c2ncc(S(=O)(=O)c3ccc(C(F)(F)F)cc3)cc2N)C1 [Compound 294, (3-amino-5-{[4-(trifluoromethyl)phenyl]sulfonyl}pyridin-2-yl)(3-fluoro-3-methylazetidin-1-yl)methanone]
102.3	51.3	92.7	1970	–	–	–	–	Nc1cc(S(=O)(=O)c2ccc(C(F)(F)F)cc2)cnc1C(=O)N1CC2(CCCOC2)C1 [Compound 295, (3-amino-5-{[4-(trifluoromethyl)phenyl]sulfonyl}pyridin-2-yl)(6-oxa-2-azaspiro[3.5]non-2-yl)methanone]
109	53	85	518	–	–	–	–	NC(=O)c1ncc(S(=O)(=O)c2ccc(OC(F)(F)F)cc2)cc1N [Compound 297, 3-amino-5-{[4-(trifluoromethoxy)phenyl]sulfonyl}pyridine-2-carboxamide]
